Drawing on ChEMBL document CHEMBL1156829 (Proc Natl Acad Sci U S A, 2008), this text covers EC50 and CC50 for 39 compounds.

A word on the EC50: it is the concentration needed to bring the measured effect to its halfway point. One may read the CC50 as the concentration that lowers cell viability or growth by half. Read a low CC50 as greater toxicity to the cells.

Data set [1] concerns Plasmodium falciparum. The experiment in a line: NOVARTIS: Inhibition of Plasmodium falciparum W2 (drug-resistant) proliferation in erythrocyte-based infection assay. The class given is functional, organism-based. Particulars: Plasmodium falciparum, W2; read-out: EC50.
Data set [2] has as its system Plasmodium falciparum. The experiment in a line: NOVARTIS: Inhibition of Plasmodium falciparum 3D7 (drug-susceptible) proliferation in erythrocyte-based infection assay. The class given is functional, organism-based. To be noted: Plasmodium falciparum, 3D7.
The nature of data set [3]: NOVARTIS: Cytotoxicity against human hepatocellular carcinoma cell line (Huh7). Format: toxicity, cell-based, Huh-7. Particulars: Huh7 cells (hepatocellular carcinoma cell line).

Take `CC[C@@H]1CN2CC[C@H]1C[C@H]2[C@H](O)c1ccnc2ccc(OC)cc12`: the EC50 in data set [1] came out at 298 nM; in data set [2], 103 nM. The compound also gave a CC50 in data set [3] of more than 6250 nM.

For the compound `Cc1cc(Nc2cccc(C(F)(F)F)c2)nc(N)n1`, the EC50 in data set [1] was found to be 1860 nM; in data set [2] it was 676 nM. This compound showed a CC50 in data set [3] of 39600 nM.

On to `COc1ccc(CCN2C(=O)c3ccc(Oc4ccc(NC(=O)c5oc(=O)c6ccccc6c5-c5ccccc5)cc4)cc3C2=O)cc1OC`, for which the results for the EC50 in data set [1] and in data set [2] were 4800 nM and more than 12500 nM, respectively. This compound had a CC50 in data set [3] of more than 100000 nM.

On to `COc1cc(NC(C)CCCN(Cc2ccc(OC)c(OC)c2)C(=O)c2ccc3ccccc3c2)c2ncccc2c1` (configuration not stated), for which the EC50 in data set [1] stood at 247 nM; in data set [2], 409 nM. Moreover, the CC50 in data set [3] was determined as 5330 nM.

With `OCCNc1nc(Nc2ccc(Br)cc2)nc2ccccc12`, the EC50 amounted to 566 nM in data set [1] and 490 nM in data set [2]. In data set [3], this compound returned a CC50 of 12000 nM.

In the case of `CC[C@@H](C(=O)[C@@H](C)[C@@H](O)[C@H](C)CCc1ccc(C)c(O)c1C(=O)O)[C@H]1O[C@](CC)([C@H]2CC[C@](O)(CC)[C@@H](C)O2)C[C@@H]1C`, the EC50 in data set [1] worked out at 468 nM; in data set [2] it was 726 nM. In data set [3], the CC50 was more than 10000 nM.

For the compound `COc1ccc2nc(-c3ccccc3)cc(NCCN(C)C)c2c1`, the EC50 is 478 nM in data set [1] and 171 nM in data set [2]. The compound also displayed a CC50 in data set [3] of more than 10000 nM.

For `OC1(c2ccc(Br)cc2)CCN(C2CCN(Cc3ccccc3)CC2)CC1`, the EC50 in data set [1] was determined as 433 nM; in data set [2], 183 nM. Further, in data set [3], the CC50 worked out at 9260 nM.

For `COc1cc(NC(C)CCCN(Cc2ccc(N(C)C)cc2)S(=O)(=O)c2cccc3ccccc23)c2ncccc2c1` (configuration not stated), the EC50 in data set [1] stood at 645 nM; in data set [2], 806 nM. This compound yielded a CC50 in data set [3] of more than 13900 nM.

`O=C(Cn1ccc(=NCc2ccccc2)cc1)c1ccc(Cl)cc1`: the EC50 in data set [1] stood at 602 nM; in data set [2], 296 nM. In data set [3], this compound had a CC50 of 12800 nM.

Regarding `CC(C)CC(N)C(=O)N1CCc2nc(Cc3ccc(F)cc3Cl)sc2C1` (configuration not stated), the EC50 was 471 nM in data set [1] and more than 1250 nM in data set [2]. Moreover, the CC50 in data set [3] is more than 10000 nM.

`O=C(Nc1ccccc1C(=O)O)c1cccc(NC(=O)c2ccco2)c1`: the EC50 in data set [1] is 471 nM; in data set [2], more than 947 nM. Moreover, the CC50 in data set [3] was more than 10000 nM.

In the case of `COc1ccc(NC(=O)c2cccc([N+](=O)[O-])c2C)cc1`, the EC50 in data set [1] was 4770 nM; in data set [2], more than 3550 nM. In data set [3], this compound yielded a CC50 of more than 100000 nM.

For the compound `CCN1CCC(Nc2ccnc3cc4ccccc4cc23)CC1`, the EC50 is 477 nM in data set [1] and 81.5 nM in data set [2]. Further, in data set [3], the CC50 was more than 10000 nM.

For `CCC(c1nc2ccccc2c(=O)n1CCOC)N1CCNCC1` (configuration not stated), the EC50 was more than 469 nM in data set [1] and 369 nM in data set [2]. Moreover, the CC50 in data set [3] was more than 10000 nM.

Consider `Oc1ccccc1-c1nc2sc(-c3ccccc3O)nc2s1`, for which the EC50 was 467 nM in data set [1] and more than 989 nM in data set [2]. The CC50 in data set [3] is more than 10000 nM.

Turning to `CCOC(=O)C1CSC(c2ccc(C(F)(F)F)cc2)N1C(=O)/C=C/c1ccccc1` (configuration not stated), the EC50 was 381 nM in data set [1] and more than 1340 nM in data set [2]. The same compound came in with a CC50 in data set [3] of more than 7950 nM.

Take `CCc1cc(C(=O)N2CCC[C@@H]3CN(C(=O)c4ccc(F)cc4)CC[C@@H]32)n(C)n1`: the EC50 is 4670 nM in data set [1] and more than 12500 nM in data set [2]. Also, the CC50 in data set [3] was more than 100000 nM.

In the case of `O=C1CN=C(c2ccccc2Cl)c2cc(Cl)ccc2N1Cc1cccc([N+](=O)[O-])c1`, the EC50 in data set [1] was more than 4670 nM; in data set [2] it was more than 4470 nM. The cytotoxic concentration (CC50) in data set [3] is more than 100000 nM.

Turning to `COc1ccc(-c2cnnc(NN=Cc3ccc([N+](=O)[O-])o3)n2)cc1`, the figures for the EC50 in data set [1] and in data set [2] were more than 464 nM and more than 1250 nM, respectively. In addition, the CC50 in data set [3] is more than 10000 nM.

Take `Cc1cc(NC2CCCCC2)nc(NCc2ccccc2)n1`: the values for the EC50 in data set [1] and in data set [2] were 364 nM and 296 nM, respectively. Besides, the CC50 in data set [3] came to 7870 nM.

Take `COc1ccc(NC(=O)c2cc3cc(C4(O)CCN(CC(C)(C)C)CC4)ccc3o2)cc1OC`: the EC50 in data set [1] was 480 nM; in data set [2] it was more than 1250 nM. Moreover, in data set [3], the CC50 is more than 10000 nM.

Take `COc1ccc(/C=C/c2nc(=O)c3ccccc3o2)cc1`: the EC50 in data set [1] came out at 480 nM; in data set [2] it was 1240 nM. In data set [3], this compound displayed a CC50 of more than 10000 nM.

For the compound `Cc1ccccc1C(=O)NCCCCNc1ccnc2cc(Cl)ccc12`, the results for the EC50 in data set [1] and in data set [2] were 479 nM and 450 nM, respectively. Moreover, the CC50 in data set [3] is more than 10000 nM.

Regarding `COc1cc2nc(SCC(C)C)n(CCCn3ccnc3)c(=N)c2cc1OC`, the EC50 amounted to 926 nM in data set [1] and 822 nM in data set [2]. The compound further registered a CC50 in data set [3] of 19900 nM.

As to `CCOC(=O)C1=C(C)N=c2sc(=Cc3c4ccccc4cc4ccccc34)c(=O)n2C1c1cc(OC)ccc1OC` (configuration not stated), the results for the EC50 in data set [1] and in data set [2] were 4770 nM and more than 12500 nM, respectively. Moreover, the CC50 in data set [3] was more than 100000 nM.

`CCCCOC(=O)Cc1ccc(N)cc1`: the EC50 in data set [1] was found to be 284 nM; in data set [2] it was 462 nM. The compound further registered a CC50 in data set [3] of 5970 nM.

`C/C=C/[P+](c1ccccc1)(c1ccccc1)c1ccccc1`: the EC50 in data set [1] worked out at 130 nM; in data set [2], 52.8 nM. Further, the CC50 in data set [3] stood at 2810 nM.

For `OC1(c2ccc(Cl)c(C(F)(F)F)c2)CCN(CCOC2c3ccccc3CSc3ccc(Cl)cc32)CC1` (configuration not stated), the EC50 is 888 nM in data set [1] and 1010 nM in data set [2]. The same compound showed a CC50 in data set [3] of 19200 nM.

Consider `O=C(Nc1ccc(Oc2cccc(Oc3ccc(NC(=O)c4ccc(Br)o4)cc3)c2)cc1)c1ccc(Br)o1`, for which the EC50 in data set [1] was 4710 nM; in data set [2], 4420 nM. This compound also had a CC50 in data set [3] of more than 100000 nM.

As to `O=C(NC1CC1)C1CCN(S(=O)(=O)c2ccc(Cl)cc2)CC1`, the EC50 in data set [1] is 4720 nM; in data set [2], 5000 nM. In data set [3], this compound yielded a 50% cytotoxic concentration (CC50) of more than 100000 nM.

Turning to `Cc1ccc(-c2cc(-c3cc(Cl)ccc3O)on2)cc1`, the EC50 in data set [1] is 472 nM; in data set [2], more than 798 nM. In data set [3], this compound gave a CC50 of more than 10000 nM.

For `COc1cc(OC)nc(CSc2ccc(NC(=O)CCl)cc2)n1`, the results for the EC50 in data set [1] and in data set [2] were 479 nM and 518 nM, respectively. In data set [3], this compound returned a CC50 of more than 10000 nM.

Turning to `O=C(Nc1ccc(N2CCCCC2)cc1)N1CCc2nc[nH]c2C1c1ccc(Cl)cc1` (configuration not stated), the values for the EC50 in data set [1] and in data set [2] were 239 nM and 640 nM, respectively. This compound also came in with a CC50 in data set [3] of more than 5040 nM.

Consider `Fc1ccc(CSc2nc3cccnc3[nH]2)cc1`, for which the EC50 in data set [1] was found to be 4800 nM; in data set [2], 3620 nM. Moreover, the CC50 in data set [3] was more than 100000 nM.

As to `c1ccc(N=c2n(-c3ccccc3)c(=Nc3ccccc3)n(-c3ccccc3)c(=Nc3ccccc3)n2-c2ccccc2)cc1`, the EC50 in data set [1] was more than 468 nM; in data set [2] it was more than 1350 nM. Further, the CC50 in data set [3] is more than 10000 nM.

For the compound `COc1cc(C(=O)Nc2cnc3ccccc3c2)ccc1-n1cnnn1`, the EC50 in data set [1] worked out at 4750 nM; in data set [2] it was 3980 nM. This compound also showed a CC50 in data set [3] of more than 100000 nM.

Turning to `CC(C)(C)C1=NN(CC(=O)NCCc2c[nH]cn2)C(=O)c2cc3ccccc3n2C1`, the EC50 in data set [1] was more than 614 nM; in data set [2], more than 1250 nM. In data set [3], this compound displayed a CC50 of more than 13200 nM.

Take `N#Cc1ccccc1Cn1ccc(=NCc2ccccc2)cc1`: the results for the EC50 in data set [1] and in data set [2] were more than 465 nM and 1060 nM, respectively. In addition, in data set [3], the CC50 is more than 10000 nM.
